Laboratory results taken from ChEMBL document CHEMBL1201862, “PubChem BioAssay data set” (2004).
Active and inactive are the calls of the source.

Key:
[1] = target: T1, Carboxy-terminal domain RNA polymerase II polypeptide A small phosphatase 1 (Homo sapiens, UniProt Q9GZU7); test: inhibitors of CTDSP1, concentration-response testing, biochemical assay, absorbance-based, actives from ultra-high-throughput screening (AID 540297); type: functional
T1 sequence (Q9GZU7 whole entry): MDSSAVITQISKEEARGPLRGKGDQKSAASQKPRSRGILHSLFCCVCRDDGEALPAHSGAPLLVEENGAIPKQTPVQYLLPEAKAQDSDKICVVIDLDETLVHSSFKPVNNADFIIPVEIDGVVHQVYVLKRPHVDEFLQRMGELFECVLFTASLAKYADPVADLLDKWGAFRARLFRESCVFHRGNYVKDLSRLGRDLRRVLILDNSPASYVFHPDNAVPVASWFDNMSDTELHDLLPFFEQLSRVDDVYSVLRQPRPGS

[2] = target: T2, Short transient receptor potential channel 4 (Mus musculus, UniProt Q9QUQ5); test: mouse TRPC4 channel activators, dose response, cell-based, HEK293 TRPC4/mu-opioid, Fluo-4 calcium (AID 434937); type: functional
T2 sequence (Q9QUQ5 whole entry): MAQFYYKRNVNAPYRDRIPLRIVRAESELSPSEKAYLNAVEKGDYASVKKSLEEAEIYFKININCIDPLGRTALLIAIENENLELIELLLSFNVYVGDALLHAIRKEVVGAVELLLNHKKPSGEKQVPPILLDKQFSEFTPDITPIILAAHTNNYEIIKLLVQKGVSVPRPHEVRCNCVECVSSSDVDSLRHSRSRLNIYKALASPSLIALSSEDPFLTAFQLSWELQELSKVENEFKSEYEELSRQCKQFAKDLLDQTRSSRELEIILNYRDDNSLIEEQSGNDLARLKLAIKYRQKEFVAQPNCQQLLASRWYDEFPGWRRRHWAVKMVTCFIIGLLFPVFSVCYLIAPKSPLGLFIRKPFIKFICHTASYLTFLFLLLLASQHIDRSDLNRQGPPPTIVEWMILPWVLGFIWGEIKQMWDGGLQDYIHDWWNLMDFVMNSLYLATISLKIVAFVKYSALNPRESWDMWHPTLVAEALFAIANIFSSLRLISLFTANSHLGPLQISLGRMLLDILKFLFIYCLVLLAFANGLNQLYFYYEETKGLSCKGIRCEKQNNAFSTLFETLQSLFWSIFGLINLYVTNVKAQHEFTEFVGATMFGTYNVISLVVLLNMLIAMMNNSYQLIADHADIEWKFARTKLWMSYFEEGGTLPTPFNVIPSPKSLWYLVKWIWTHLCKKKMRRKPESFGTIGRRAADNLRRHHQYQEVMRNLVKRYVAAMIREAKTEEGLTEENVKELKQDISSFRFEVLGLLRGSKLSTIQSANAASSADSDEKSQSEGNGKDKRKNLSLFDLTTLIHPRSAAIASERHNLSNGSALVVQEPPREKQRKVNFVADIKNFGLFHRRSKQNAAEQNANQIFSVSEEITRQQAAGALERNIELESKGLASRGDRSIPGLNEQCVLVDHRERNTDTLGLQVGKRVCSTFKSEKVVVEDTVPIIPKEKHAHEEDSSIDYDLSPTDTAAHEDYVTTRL

Cytochrome P450 2D6 = Cytochrome P450 2D6 (Homo sapiens, UniProt P10635);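 also: CYP2D6 member of a cytochrome P450 panel assay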
Cytochrome P450 2D6, sequence (P10635 whole entry): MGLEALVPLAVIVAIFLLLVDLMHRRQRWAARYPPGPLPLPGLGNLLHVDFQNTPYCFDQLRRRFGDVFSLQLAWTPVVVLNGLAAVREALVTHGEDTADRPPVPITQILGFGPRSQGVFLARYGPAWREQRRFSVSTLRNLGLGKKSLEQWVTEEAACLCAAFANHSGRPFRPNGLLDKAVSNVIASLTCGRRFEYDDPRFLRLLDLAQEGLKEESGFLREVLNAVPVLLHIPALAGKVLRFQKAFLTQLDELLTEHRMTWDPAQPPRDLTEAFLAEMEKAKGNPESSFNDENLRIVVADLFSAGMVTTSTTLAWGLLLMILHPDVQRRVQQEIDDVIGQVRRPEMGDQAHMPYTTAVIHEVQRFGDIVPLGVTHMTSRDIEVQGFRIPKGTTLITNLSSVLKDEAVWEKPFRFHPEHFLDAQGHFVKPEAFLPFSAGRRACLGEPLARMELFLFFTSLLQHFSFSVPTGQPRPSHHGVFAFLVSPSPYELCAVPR

Cytochrome P450 1A2 = target: T3, Cytochrome P450 1A2 (Homo sapiens, UniProt P05177);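 also: PubChem cytochrome P450 panel assay, CYP1A2 panel member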
T3 sequence (P05177 whole entry): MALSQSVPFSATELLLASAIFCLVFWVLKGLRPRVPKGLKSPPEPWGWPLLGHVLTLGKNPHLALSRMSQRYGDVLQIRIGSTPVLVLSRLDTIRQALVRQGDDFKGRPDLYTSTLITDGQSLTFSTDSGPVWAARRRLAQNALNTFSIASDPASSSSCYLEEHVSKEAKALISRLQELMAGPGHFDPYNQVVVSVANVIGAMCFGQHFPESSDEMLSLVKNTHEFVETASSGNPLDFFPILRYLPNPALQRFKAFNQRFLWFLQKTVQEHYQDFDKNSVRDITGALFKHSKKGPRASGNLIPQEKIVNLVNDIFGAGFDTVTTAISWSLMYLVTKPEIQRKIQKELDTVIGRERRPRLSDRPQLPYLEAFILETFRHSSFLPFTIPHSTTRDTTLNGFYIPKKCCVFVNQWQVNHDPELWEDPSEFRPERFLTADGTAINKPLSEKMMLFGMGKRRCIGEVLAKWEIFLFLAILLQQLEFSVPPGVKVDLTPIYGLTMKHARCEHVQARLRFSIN

Cytochrome P450 2C9 = Cytochrome P450 2C9 (Homo sapiens, UniProt P11712)
Cytochrome P450 2C9, sequence (P11712 whole entry): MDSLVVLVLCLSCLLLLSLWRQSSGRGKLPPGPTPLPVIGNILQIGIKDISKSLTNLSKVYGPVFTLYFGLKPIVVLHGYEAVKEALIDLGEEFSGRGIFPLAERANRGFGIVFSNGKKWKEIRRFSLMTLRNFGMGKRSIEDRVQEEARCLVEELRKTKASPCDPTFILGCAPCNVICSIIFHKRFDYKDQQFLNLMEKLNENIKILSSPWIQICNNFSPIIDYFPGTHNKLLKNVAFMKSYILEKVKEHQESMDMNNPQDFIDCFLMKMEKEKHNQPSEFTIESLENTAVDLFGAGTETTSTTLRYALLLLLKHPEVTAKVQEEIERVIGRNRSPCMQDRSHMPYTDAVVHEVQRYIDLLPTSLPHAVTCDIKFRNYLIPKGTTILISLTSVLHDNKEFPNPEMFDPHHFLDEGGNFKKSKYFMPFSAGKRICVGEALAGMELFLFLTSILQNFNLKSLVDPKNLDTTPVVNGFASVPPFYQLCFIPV

[3] = HEp-2 cell cytotoxicity, dose response, cytotoxicity control for RSV inhibitor project, HTS (AID 2410); type: functional; conditions: human respiratory syncytial virus
[4] = THP-1 cell cytotoxicity, dose response, cytotoxicity control for non-replicating M. tuberculosis project (AID 489025); type: functional
X-box-binding protein 1 = target: T4, X-box-binding protein 1 (Homo sapiens, UniProt P17861); type: functional, Cricetulus griseus;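 also: confirmatory dose-response counter-screen serving a CHOP assay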
T4 sequence (P17861 whole entry): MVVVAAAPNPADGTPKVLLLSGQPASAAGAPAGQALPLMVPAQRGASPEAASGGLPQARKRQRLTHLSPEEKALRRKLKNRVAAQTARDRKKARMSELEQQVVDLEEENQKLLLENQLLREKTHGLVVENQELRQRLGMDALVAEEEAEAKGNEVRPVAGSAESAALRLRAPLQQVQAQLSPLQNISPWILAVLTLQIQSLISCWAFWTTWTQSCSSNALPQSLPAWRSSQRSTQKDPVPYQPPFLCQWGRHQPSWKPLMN

cells = type: functional
[5] = target: Beta-2 adrenergic receptor (Homo sapiens, UniProt P07550); test: beta2AR agonists driving receptor internalization, dose response, cell-based, FAP fluorogen, flow cytometry, cherry pick 1 (AID 588763); type: functional
Beta-2 adrenergic receptor, sequence (P07550 whole entry): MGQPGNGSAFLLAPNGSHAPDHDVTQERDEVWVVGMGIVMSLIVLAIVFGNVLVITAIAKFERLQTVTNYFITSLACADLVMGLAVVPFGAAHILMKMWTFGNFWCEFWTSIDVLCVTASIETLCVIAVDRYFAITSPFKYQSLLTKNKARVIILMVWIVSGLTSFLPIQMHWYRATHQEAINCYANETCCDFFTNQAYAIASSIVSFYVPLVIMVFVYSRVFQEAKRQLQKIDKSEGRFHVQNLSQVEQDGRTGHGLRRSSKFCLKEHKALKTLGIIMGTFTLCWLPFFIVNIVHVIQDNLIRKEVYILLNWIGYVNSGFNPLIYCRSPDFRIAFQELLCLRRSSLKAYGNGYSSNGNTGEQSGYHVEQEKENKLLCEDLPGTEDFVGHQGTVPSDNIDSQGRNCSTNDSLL

[6] = system: Streptococcus sp. 'group A'; test: growth inhibition of control SK(-) GAS strain, dose response, counter-screen for streptokinase expression inhibitor project, luminescence, kanamycin, BacTiterGlo, confirmation (AID 1900); type: functional, organism-based
Streptokinase A = target: T5, Streptokinase A (Streptococcus pyogenes serotype M1, UniProt P10520); test: S. pyogenes streptokinase expression inhibitors, potency, dose response, plasminogen activation absorbance, OD405 (AID 1914); type: functional, Streptococcus pyogenes M1 GAS;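 also: secreted streptokinase activity via plasminogen activation per viability signal from cell pellet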
T5 sequence (P10520 whole entry): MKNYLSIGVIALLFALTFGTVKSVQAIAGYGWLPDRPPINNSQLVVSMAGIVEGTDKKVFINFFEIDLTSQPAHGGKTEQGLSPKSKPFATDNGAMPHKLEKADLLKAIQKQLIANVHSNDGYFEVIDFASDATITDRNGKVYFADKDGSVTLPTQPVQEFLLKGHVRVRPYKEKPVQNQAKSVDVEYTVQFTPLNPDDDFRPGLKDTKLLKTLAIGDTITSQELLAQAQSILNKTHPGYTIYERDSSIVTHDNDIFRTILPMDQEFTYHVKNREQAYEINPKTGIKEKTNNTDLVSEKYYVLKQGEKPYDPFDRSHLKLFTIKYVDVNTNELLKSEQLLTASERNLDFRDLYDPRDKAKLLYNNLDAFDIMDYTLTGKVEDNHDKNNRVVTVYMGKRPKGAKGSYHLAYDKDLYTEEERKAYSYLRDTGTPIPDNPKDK

Streptococcus = test: Group A Streptococcus viability loss, dose response, counter-screen for streptokinase expression inhibitor project, luminescence, BacTiterGlo (AID 1915); type: functional, organism-based;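 also: potency for reduction of bacterial viability or growth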
[7] = Vero E6 cell cytotoxicity, dose response, cytotoxicity control for non-replicating M. tuberculosis project, secondary assay (AID 492998); type: functional, VeroE6; conditions: Vero C1008
HEK293 [8] = test: NOD1 signaling inhibitors, primary screen, cell-based, luminescence, uHTS (AID 1578); type: functional; conditions: Homo sapiens
HEK293 [9] = test: cells; type: functional, cell-based; conditions: Homo sapiens
HEK293 [10] = test: cells; type: functional, cell-based; conditions: Homo sapiens; remark: listed apart in the source
[11] = target: Nucleotide-binding oligomerization domain-containing protein 2 (Homo sapiens, UniProt Q9HC29); test: NOD2 signaling inhibitors, cell-based, luminescence, uHTS, HEK293 (AID 1566); type: functional
Nucleotide-binding oligomerization domain-containing protein 2, sequence (Q9HC29 whole entry, the tested form may be a part): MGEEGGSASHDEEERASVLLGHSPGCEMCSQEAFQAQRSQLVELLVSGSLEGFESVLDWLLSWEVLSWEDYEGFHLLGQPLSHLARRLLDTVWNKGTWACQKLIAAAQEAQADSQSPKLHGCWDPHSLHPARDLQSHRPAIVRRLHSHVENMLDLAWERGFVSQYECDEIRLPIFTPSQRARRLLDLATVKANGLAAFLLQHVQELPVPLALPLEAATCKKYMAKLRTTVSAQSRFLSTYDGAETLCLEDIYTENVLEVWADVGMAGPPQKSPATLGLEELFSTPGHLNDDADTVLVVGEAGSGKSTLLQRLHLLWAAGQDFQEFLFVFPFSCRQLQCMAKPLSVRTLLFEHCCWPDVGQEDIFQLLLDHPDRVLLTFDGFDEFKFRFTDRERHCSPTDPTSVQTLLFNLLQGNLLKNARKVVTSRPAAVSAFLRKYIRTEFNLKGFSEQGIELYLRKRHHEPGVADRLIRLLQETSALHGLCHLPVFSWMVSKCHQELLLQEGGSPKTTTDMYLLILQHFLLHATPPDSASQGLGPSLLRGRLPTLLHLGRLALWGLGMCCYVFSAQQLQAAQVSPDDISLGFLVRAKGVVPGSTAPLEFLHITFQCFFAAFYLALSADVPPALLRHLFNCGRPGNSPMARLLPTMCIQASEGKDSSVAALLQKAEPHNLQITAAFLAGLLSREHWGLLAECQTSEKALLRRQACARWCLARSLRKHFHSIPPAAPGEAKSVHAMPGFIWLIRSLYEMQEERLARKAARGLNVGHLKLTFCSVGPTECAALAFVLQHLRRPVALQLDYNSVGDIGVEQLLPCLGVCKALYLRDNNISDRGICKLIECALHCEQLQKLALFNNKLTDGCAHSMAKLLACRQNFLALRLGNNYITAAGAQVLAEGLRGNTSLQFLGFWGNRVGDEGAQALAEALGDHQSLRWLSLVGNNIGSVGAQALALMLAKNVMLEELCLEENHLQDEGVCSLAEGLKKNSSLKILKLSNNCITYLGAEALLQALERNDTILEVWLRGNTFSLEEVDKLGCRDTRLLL

HEK293 [12] = test: NOD2 signaling inhibitors in MDP-stimulated cells, cell-based, uHTS, luminescence (AID 2001); type: functional; conditions: Homo sapiens
[13] = inhibitors of intracellular T. cruzi replication, confirmation, NIH3T3 host cells, beta-gal luminescence (AID 2044); type: functional, cell-based;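 also: intracellular parasites grown in NIH/3T3 mouse fibroblasts as host cells; luminescent beta-galactosidase reporter signal from transgenic T. cruzi replicating inside host cells; inhibitors lower the luminescence signal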
[14] = cytotoxicity toward NIH3T3 fibroblasts, dose response, counter-screen, cell-based, ATP luminescence, mouse fibroblasts (AID 2010); type: functional;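 also: cells exposed to compound for about 90 hours before reading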

CCc1ccc(Nc2nnc(SCC(=O)NC(=O)CN3CCCC3=O)s2)cc1
IC50 [1]: 15 µM (active)

CCNc1nc(NCC)n2c(SCC(=O)Nc3ccc(OC(F)F)cc3)nnc2n1
IC50 [1]: 9.83 µM (active)

Cc1cc(NC(=O)CN2CCc3ccccc3C2)nc2c1c(=O)oc1ccccc12
EC50 [2]: 1.19 µM (active)

O=[N+]([O-])c1ccc(Cl)c(/C=N/N2CCN(Cc3ccccc3Cl)CC2)c1
AC50 (Cytochrome P450 2D6): 7.94 µM (inconclusive) | AC50 (Cytochrome P450 1A2): 2.51 µM (inconclusive) | AC50 (Cytochrome P450 2C9): inconclusive

Fc1ccc(-c2nn(-c3ccccc3)cc2CNCc2ccccc2)cc1
CC50 [3]: 17.9 µM (active) | CC50 [4]: 26 µM (active) | EC50 [2]: 5.31 µM (active) | Absolute IC50 (XBP1) (X-box-binding protein 1): 10 µM | IC50 (cells): 21.6 µM (active)

CC1(C)Cc2c(c(-c3ccco3)nc3sc4c(NCC5CCCO5)ncnc4c23)CO1 (stereo unspecified)
EC50 [5]: 0.0919 µM (active)

O=C(Nc1nc2ccccc2[nH]1)c1cccc(Cl)c1
EC50 [6]: 8.88 µM (active) | EC50 (Streptokinase A): > 150 µM (not active) | EC50 (Streptococcus): 69.4 µM (active) | CC50 [4]: > 40 µM (active) | CC50 [7]: > 20 µM (active) | IC50 (cells): 7.11 µM (active)

O=S(=O)(c1ccc(Cl)cc1)N1CCN2CCCC2C1 (stereo unspecified)
EC50 [2]: 4.73 µM (active)

COc1cc(OC)c(OC)cc1/C=C1\CCC/C(=C\c2cc(OC)c(OC)cc2OC)C1=O
EC50 (HEK293 [8]): 15.5 µM (active) | IC50 (HEK293 [9]): 5.03 µM (active) | IC50 (HEK293 [10]): 18.1 µM (active) | EC50 [11]: 13 µM (active) | IC50 (HEK293 [12]): 6.27 µM (active) | EC50 [13]: 1.51 µM (active) | EC50 [14]: 6.67 µM (active)
